Experimental data as given in patent US12459914B2, “Compounds and compositions for the treatment of tumors” (FONDAZIONE ISTITUTO ITALIANO DI TECNOLOGIA, priority 2019, dated 2025).

Experiments:
BRC4/RAD51 interaction = target: T1, BRC4/RAD51 interaction (Homo sapiens, UniProt Q06609); assay: Competitive ELISA assay, disruption of BRC4/RAD51 interaction; type: binding; settings: human Rad51, biotinylated BRC4 peptide
T1 construct: purchased Creative Biomart (Rad51); Life Technologies (BRC4 peptide)
T1 sequence (Q06609 1-339): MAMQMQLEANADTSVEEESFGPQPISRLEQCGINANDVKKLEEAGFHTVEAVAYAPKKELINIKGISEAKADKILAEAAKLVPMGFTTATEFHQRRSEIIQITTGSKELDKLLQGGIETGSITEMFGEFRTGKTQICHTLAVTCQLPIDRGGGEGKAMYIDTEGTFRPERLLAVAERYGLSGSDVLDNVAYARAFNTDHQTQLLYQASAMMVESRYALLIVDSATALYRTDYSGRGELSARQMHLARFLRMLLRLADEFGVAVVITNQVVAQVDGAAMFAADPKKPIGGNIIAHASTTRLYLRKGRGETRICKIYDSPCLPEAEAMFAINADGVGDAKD
Outline: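 Competitive ELISA: plates coated with biotinylated BRC4 peptide, blocked with 1% BSA/PBST, then hybridized overnight with human Rad51 protein. Compounds tested in triplicate dose-response, […], 1% DMSO. Bound Rad51 detected colorimetrically with anti-Rad51 antibody, HRP secondary and TMB quenched with HCl.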

[1] = test system: Homologous recombination (HR) in BxPC3 cells; assay: Homologous recombination assay (HR); type: cell-based; settings: Homo sapiens, BXPC-3, read-out: HR inhibition: IC50
Method: Homologous recombination (HR) was assessed by using a commercially available assay (Norgen). This assay is based on cell co-transfection with two plasmids that, upon cells entering, recombinate. The efficiency of HR can be assessed by real time PCR, using primer mixtures included in the assay kit. Different primer mixtures allow differentiation between the original plasmid backbones and their recombination product.
BxPC3 cells (2×10^3 per well) were seeded in a 24-well plate and allowed to adhere overnight. Co-transfection with the two plasmids was performed in Lipofectamine 2000 (Invitrogen) for 5 h, according to the manufacturer's instructions. During transfection cells were exposed at different doses of BRCA2-Rad51 disruptors, dissolved in RPMI without serum in the presence of 0.6% DMSO.
After washing with PBS, cells were harvested, and DNA was isolated using QIAamp® DNA Mini Kit (Qiagen). Sample concentration was measured using an ONDA Nano Genius photometer.
The thermal cycler (CFX96 ™ Real Time System, BioRad) was programmed as follows: initial denaturation 95° C. for 3 min then 95° C. for 15 sec., 61° C. for 30 sec., 72° C. for 1 min and repeated for 40 cycles. Melt curve analysis was done. Samples were run in triplicate, in 10 μl reaction volume containing 25 ng of template.
In each DNA sample from control and treated cultures, the ΔCt between the recombination product and the backbone plasmids was calculated. HR efficiency was evaluated from the 2^−ΔΔ^Ct value obtained by comparing treated vs control samples.

- EC50 (BRC4/RAD51 interaction): 19 µM
- IC50 [1]: 18.4 µM
Structure (SMILES): CCC(=O)N1N=C(c2c(-c3ccccc3)c3cc(Cl)ccc3[nH]c2=O)CC1c1ccc(OC)cc1 (centres unmarked) [d.12, 6-chloro-3-[3-(4-methoxyphenyl)-2-propanoyl-3,4-dihydropyrazol-5-yl]-4-phenyl-1H-quinolin-2-one]
